The record followed here is ChEMBL document CHEMBL1137586, “Aminomethyl tetrahydronaphthalene ketopiperazine MCH-R1 antagonists--Increasing selectivity over hERG” (Bioorg Med Chem Lett, 2007).

For data set [1], the target named is T1, Melanin-concentrating hormone receptor 1 (Homo sapiens, UniProt Q99705). Description: Functional antagonism of MCH-R1 expressed in HEK293 cells. Format: cell-based.
The target of data set [2] is T2, Voltage-gated inwardly rectifying potassium channel KCNH2 (Homo sapiens, UniProt Q12809). Put plainly: Inhibition of binding to hERG. (The hERG channel carries a current that helps repolarise heart muscle cells.)
The next data set deals with Mus musculus. Description: Percent weight loss in DIO mice 4 days after 20 mg/kg peroral dose. Format: functional. As to conditions: route oral; call rule not given here.
A short description of data set [3]: Serum concentration in DIO mice 2 hr post 20mg/kg peroral dose. As to conditions: mouse, po, read-out: Serum conc. Format: ADME, organism-based.
The next data set concerns the target hERG (KCNH2) (Homo sapiens, UniProt Q12809). Put plainly: Percent inhibition of binding to hERG at10uM.
Data set [4] deals with T1, Melanin-concentrating hormone receptor 1. Put plainly: Inhibition of binding to MCH-R1.
A short description of data set [5]: Relative concentration in DIO mouse brain over serum 2 hr post 20mg/kg peroral dose. Format: ADME, organism-based. As to conditions: po.
The target in data set [6] is T2, Voltage-gated inwardly rectifying potassium channel KCNH2. Description: Prolonged QTc interval in anaesthetized dogs after 15min infusion at 30 mg/kg compared to vehicle. The settings on record: dog, in vivo, iv, 0.25 h.

The structures appear in SMILES notation.

T2 sequence (Q12809 whole entry): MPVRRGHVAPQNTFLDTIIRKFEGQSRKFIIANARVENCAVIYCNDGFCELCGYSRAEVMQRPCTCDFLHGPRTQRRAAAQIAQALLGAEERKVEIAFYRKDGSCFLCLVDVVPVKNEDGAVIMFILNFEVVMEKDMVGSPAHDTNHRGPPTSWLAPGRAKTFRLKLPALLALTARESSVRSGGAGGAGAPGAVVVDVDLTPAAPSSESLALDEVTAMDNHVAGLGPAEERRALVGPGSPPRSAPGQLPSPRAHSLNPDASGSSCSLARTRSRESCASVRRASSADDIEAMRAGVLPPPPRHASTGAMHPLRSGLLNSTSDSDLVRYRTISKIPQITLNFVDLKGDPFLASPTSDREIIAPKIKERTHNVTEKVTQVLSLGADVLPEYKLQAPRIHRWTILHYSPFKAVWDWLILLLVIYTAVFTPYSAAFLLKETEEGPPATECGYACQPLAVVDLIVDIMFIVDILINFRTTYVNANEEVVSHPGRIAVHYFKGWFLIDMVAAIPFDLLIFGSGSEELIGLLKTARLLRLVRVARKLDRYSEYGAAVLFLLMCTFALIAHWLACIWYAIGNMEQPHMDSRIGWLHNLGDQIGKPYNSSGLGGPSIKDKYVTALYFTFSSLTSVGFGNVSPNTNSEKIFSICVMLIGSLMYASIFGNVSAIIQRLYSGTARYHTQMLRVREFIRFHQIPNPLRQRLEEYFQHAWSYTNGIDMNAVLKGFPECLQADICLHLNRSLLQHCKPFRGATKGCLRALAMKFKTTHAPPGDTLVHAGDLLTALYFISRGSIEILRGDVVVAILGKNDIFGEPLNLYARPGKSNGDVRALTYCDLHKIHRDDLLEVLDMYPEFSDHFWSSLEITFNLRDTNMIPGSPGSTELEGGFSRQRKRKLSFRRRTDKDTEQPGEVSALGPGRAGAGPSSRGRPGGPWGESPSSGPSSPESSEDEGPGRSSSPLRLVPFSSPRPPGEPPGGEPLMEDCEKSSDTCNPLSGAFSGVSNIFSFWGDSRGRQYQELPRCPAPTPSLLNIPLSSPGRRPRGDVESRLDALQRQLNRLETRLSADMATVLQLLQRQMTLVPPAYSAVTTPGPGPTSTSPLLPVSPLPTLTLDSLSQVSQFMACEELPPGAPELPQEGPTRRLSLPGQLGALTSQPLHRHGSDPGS
T1 sequence (Q99705 whole entry): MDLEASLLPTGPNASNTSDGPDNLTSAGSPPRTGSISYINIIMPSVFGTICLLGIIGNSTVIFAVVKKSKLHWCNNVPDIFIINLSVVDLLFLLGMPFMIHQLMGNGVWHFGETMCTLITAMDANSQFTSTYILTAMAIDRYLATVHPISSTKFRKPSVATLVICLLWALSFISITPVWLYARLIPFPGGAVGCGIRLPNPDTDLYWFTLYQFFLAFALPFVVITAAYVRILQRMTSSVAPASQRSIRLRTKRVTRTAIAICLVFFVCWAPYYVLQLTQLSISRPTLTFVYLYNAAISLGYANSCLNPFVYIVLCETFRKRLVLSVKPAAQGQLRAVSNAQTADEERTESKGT
Chain of hERG (KCNH2) (Q12809 whole entry): as the sequence (Q12809 whole entry) above

Take `CCN(CC)Cc1ccc2c(c1)CC[C@H](N1CCN(CCC3CCCS3)CC1=O)C2` (stereo partly drawn): the affinity in data set [1], expressed as Ki, was 0.047 µM.
Turning to `CCN(CC)Cc1ccc2c(c1)CC[C@H](N1CCN(CCC3CCCCC3)CC1=O)C2`, in data set [1], the Ki was 0.032 µM.
On to `O=C1CN(CCc2ccc(F)cc2)CCN1[C@H]1CCc2cc(CN3CCS(=O)(=O)CC3)ccc2C1`, for which the IC50 in data set [2] turned out to be 24 µM. Moreover, in the data set on Mus musculus, the Weight loss is less than 2%. In addition, the concentration at 2 h in data set [3] came out at 16 µM.
The compound `CS(=O)(=O)N1CCN(Cc2ccc3c(c2)CC[C@H](N2CCN(CCc4ccc(F)cc4)CC2=O)C3)CC1` had a half-inhibitory concentration (IC50) in data set [2] of 13 µM. Further, the Weight loss in the data set with Mus musculus was 3%. Further, in data set [3], the concentration at 2 h stood at 9 µM. The Ki in data set [1] was determined as 30 µM.
`CN(C)C(=O)C(CO)N(C)Cc1ccc2c(c1)CC[C@H](N1CCN(CCc3ccc(F)cc3)CC1=O)C2` (stereo partly drawn): the IC50 in data set [2] amounted to 25 µM.
On hERG (KCNH2), `O=C1CN(CCc2ccc(F)cc2)CCN1[C@H]1CCc2cc(CNCC(F)(F)F)ccc2C1` returned an inhibition at 10 µM of more than 50%.
In data set [1], `CCN(CC)Cc1ccc2c(c1)CC[C@H](N1CCN(CCc3ccc(Cl)cc3)CC1=O)C2` returned an inhibition constant (Ki) of 0.0033 µM.
Turning to `CCN(CC)Cc1ccc2c(c1)CC[C@H](N1CCN(CCc3ccc(F)cc3)CC1=O)C2`, in data set [4], the Ki is 0.015 µM. In addition, the Weight loss in the data set with Mus musculus was 4%. In addition, the concentration at 2 h in data set [3] worked out at 2 µM.
`O=C1CN(CCc2ccc(F)cc2)CCN1[C@H]1CCc2cc(Cn3ccnc3)ccc2C1` gave an IC50 in data set [2] of 4 µM. In data set [1], this compound returned a Ki of 52 µM.
In turn, `CCN(CC)Cc1ccc2c(c1)CC[C@H](N1CCN(CCc3cccc(C(F)(F)F)c3)CC1=O)C2` had a Ki in data set [1] of 0.093 µM.
`O=C1CN(CCc2ccc(F)cc2)CCN1[C@H]1CCc2cc(CN3CCC(C(F)(F)F)CC3)ccc2C1`: the IC50 in data set [2] worked out at 2 µM. The compound further yielded a Ki in data set [1] of 8.7 µM.
The corresponding values for `O=C1CN(CCc2ccc(F)cc2)CCN1[C@H]1CCc2cc(CN3CCOCC3)ccc2C1` are 11 µM and 15 µM.
With `CC(=O)N1CCN(Cc2ccc3c(c2)CC[C@H](N2CCN(CCc4ccc(F)cc4)CC2=O)C3)CC1`, in data set [5], the Kp at 2 h was 0.3. In data set [2], this compound yielded an IC50 of 25 µM. Moreover, the Weight loss with Mus musculus is given as less than 2%. Besides, in data set [3], the concentration at 2 h came out at 4 µM. The compound also displayed a Ki in data set [1] of 16 µM. For the same compound, the QT interval result in data set [6] is “Active p<0.05”.

In general, Ki refers to a dissociation constant, usually derived from enzyme kinetics or from competition with a known ligand. Lower therefore signals a stronger hold on the target. As usually defined, the IC50 is the concentration needed to halve the response being measured. A word on the inhibition: it is the share of the control response that was lost under treatment. As a reminder, the Kp is tissue or fluid exposure divided by exposure in the circulation.
